Test results published in patent publication US8927500B2, “Peptidomimetic macrocycles” (Aileron Therapeutics, Inc., priority 2012, dated 2015).
Where a SMILES comes first, the peptide text is derived from it. Bridges are numbered along the chain shown (N, C = ends). [ ]: non-standard residue; d: D form. R8 = C=CCCCCCC[C@@](C)(N)C(=O)O; S5 = C=CCCC[C@](C)(N)C(=O)O

Key:
[1] = test system: SJSA-1 cells; test: Cell lysis by peptidomimetic macrocycles (LDH release); type: cell-based; conditions: 1 h at 37C
[2] = molecular target: T1, MDMX (Homo sapiens, UniProt O15151); test: Competitive fluorescence polarization assay for MDMX; type: binding; conditions: competitive FP assay; for IC50: read-out: IC50 (MDMX); for Ki: read-out: Ki (MDMX)
T1 sequence (O15151 1-125): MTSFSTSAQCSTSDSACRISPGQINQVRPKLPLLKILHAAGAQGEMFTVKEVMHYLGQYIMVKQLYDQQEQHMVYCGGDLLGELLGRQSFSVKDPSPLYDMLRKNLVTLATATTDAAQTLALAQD

[3] = molecular target: MDM2 (Homo sapiens, UniProt Q00987); test: Competitive fluorescence polarization assay for MDM2; type: binding; conditions: competitive FP assay, MDM2; for IC50: read-out: IC50 (MDM2); for Ki: read-out: Ki (MDM2)
Chain of MDM2 (Q00987 1-125): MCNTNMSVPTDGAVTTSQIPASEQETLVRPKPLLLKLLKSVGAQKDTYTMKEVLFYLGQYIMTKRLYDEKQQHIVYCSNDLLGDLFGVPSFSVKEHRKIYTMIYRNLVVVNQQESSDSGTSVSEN

IC50 [2] [nM] | Ki [2] [nM] | IC50 [3] [nM] | Ki [3] [nM] | Compound | 6.25 uM % Lysed cells (1 h LDH) [1] [%] | 25 uM % Lysed cells (1 h LDH) [1] [%] | 50 uM % Lysed cells (1 h LDH) [1] [%]
100 to 1000 | 10 to 100 | 10 to 100 | < 10 | CCCC[C@H](NC(=O)[C@H](C)NC(=O)[C@H](C)NC(=O)[C@]1(C)CCCC=CCCCCCC[C@@](C)(NC(=O)[C@H](Cc2ccccc2)NC(=O)[C@@H](NC(=O)[C@H](CC(C)C)NC(C)=O)[C@@H](C)O)C(=O)N[C@@H](C)C(=O)N[C@@H](Cc2ccc(O)cc2)C(=O)N[C@@H](Cc2c[nH]c3ccccc23)C(=O)N[C@@H](C)C(=O)N[C@@H](CCC(N)=O)C(=O)N[C@@H](CC(C)C)C(=O)N1)C(=O)N[C@H](C)C(N)=O (single isomer, unassigned) [compound 75] | −1 | 1 | 1
100 to 1000 | 10 to 100 |  |  | CC(=O)N[C@@H](CC(C)C)C(=O)N[C@H](C(=O)N[C@@H](Cc1ccccc1)C(=O)N[C@]1(C)CCCCCCC=CCCC[C@@](C)(C(=O)N[C@@H](CO)C(=O)N[C@@H](C)C(=O)N[C@@H](C)C(N)=O)NC(=O)[C@H](C2CCCC2)NC(=O)[C@H](CCC(N)=O)NC(=O)[C@H](C)NC(=O)[C@H](Cc2c[nH]c3ccccc23)NC(=O)[C@H](Cc2ccc(O)cc2)NC(=O)[C@H](CCC(=O)O)NC1=O)[C@@H](C)O (single isomer, unassigned) [compound 150] | −1 | 0 | 2
10 to 100 | 10 to 100 | < 10 | < 10 | CC(=O)N[C@@H](CC(C)C)C(=O)N[C@H](C(=O)N[C@@H](Cc1ccccc1)C(=O)N[C@]1(C)CCCCCCC=CCCC[C@@](C)(C(=O)N[C@@H](CO)C(=O)N[C@@H](C)C(=O)N[C@@H](C)C(N)=O)NC(=O)[C@H](CC(C)C)NC(=O)[C@H](CCC(N)=O)NC(=O)[C@H](C)NC(=O)[C@H](Cc2c[nH]c3ccccc23)NC(=O)[C@H](Cc2ccc(C(=O)O)cc2)NC(=O)[C@H](C)NC1=O)[C@@H](C)O (single isomer, unassigned) [compound 169] | 2 | 3 | 7
100 to 1000 | 10 to 100 | < 10 | < 10 | CC[C@H](C)[C@H](NC(=O)[C@H](C)NC(=O)[C@H](C)NC(=O)[C@]1(C)CCCC=CCCCCCC[C@@](C)(NC(=O)[C@H](Cc2ccccc2)NC(=O)[C@@H](NC(=O)[C@H](CC(C)C)NC(C)=O)[C@@H](C)O)C(=O)N[C@@H](CCC(=O)O)C(=O)N[C@@H](Cc2ccc(O)cc2)C(=O)N[C@@H](Cc2c[nH]c3ccccc23)C(=O)N[C@@H](C)C(=O)N[C@@H](CCC(N)=O)C(=O)N[C@@H](CC(C)C)C(=O)N1)C(=O)N[C@H](C)C(N)=O (single isomer, unassigned) [compound 217] | 2 | 1 | 2
10 to 100 | 10 to 100 |  |  | CC(C)CC[C@@H]1NC(=O)[C@H](CCC(N)=O)NC(=O)[C@H](C)NC(=O)[C@H](Cc2c[nH]c3ccccc23)NC(=O)[C@H](Cc2ccc(O)cc2)NC(=O)[C@H](CCC(=O)O)NC(=O)[C@](C)(NC(=O)[C@H](Cc2ccccc2)NC(=O)[C@@H](NC(=O)[C@H](CC(C)C)NC(=O)CN(C)C)[C@@H](C)O)CCCCCCC=CCCC[C@@](C)(C(=O)N[C@@H](CO)C(=O)N[C@@H](C)C(=O)N[C@@H](C)C(N)=O)NC1=O [compound 279] | 6 | 5 | 6
100 to 1000 | 10 to 100 |  |  | CCCCCC(=O)N[C@@H](CC(C)C)C(=O)N[C@H](C(=O)N[C@@H](Cc1ccccc1)C(=O)N[C@]1(C)CCCCCCC=CCCC[C@@](C)(C(=O)N[C@@H](CO)C(=O)N[C@@H](C)C(=O)N[C@@H](C)C(N)=O)NC(=O)[C@H](CCC(C)C)NC(=O)[C@H](CCC(N)=O)NC(=O)[C@H](C)NC(=O)[C@H](Cc2c[nH]c3ccccc23)NC(=O)[C@H](Cc2ccc(O)cc2)NC(=O)[C@H](CCC(=O)O)NC1=O)[C@@H](C)O [compound 280] | 5 | 6 | 18
100 to 1000 | 10 to 100 |  |  | CC(C)CC[C@@H]1NC(=O)[C@H](CCC(N)=O)NC(=O)[C@H](C)NC(=O)[C@H](Cc2c[nH]c3ccccc23)NC(=O)[C@H](Cc2ccc(O)cc2)NC(=O)[C@H](CCC(=O)O)NC(=O)[C@](C)(NC(=O)[C@H](Cc2ccccc2)NC(=O)[C@@H](NC(=O)[C@H](CC(C)C)NC(=O)C(C)(C)C)[C@@H](C)O)CCCCCCC=CCCC[C@@](C)(C(=O)N[C@@H](CO)C(=O)N[C@@H](C)C(=O)N[C@@H](C)C(N)=O)NC1=O [compound 284] | 5 | 5 | 6

The next lines start with the compound.

Compound | IC50 [2] [nM] | Ki [2] [nM] | IC50 [3] [nM] | Ki [3] [nM] | 6.25 uM % Lysed cells (1 h LDH) [1] [%] | 25 uM % Lysed cells (1 h LDH) [1] [%] | 50 uM % Lysed cells (1 h LDH) [1] [%]
CC[C@H](C)[C@H](NC(=O)[C@H](C)NC(=O)[C@H](C)NC(=O)[C@]1(C)CCCC=CCCCCCC[C@@](C)(NC(=O)[C@H](Cc2ccccc2)NC(=O)[C@@H](NC(=O)[C@H](CCC(=O)O)NC(C)=O)[C@@H](C)O)C(=O)N[C@@H](CCC(=O)O)C(=O)N[C@@H](Cc2c[nH]cn2)C(=O)N[C@@H](Cc2c[nH]c3ccccc23)C(=O)N[C@@H](C)C(=O)N[C@@H](CCC(N)=O)C(=O)N[C@@H](CC(C)C)C(=O)N1)C(=O)N[C@H](C)C(N)=O (single isomer, unassigned) [compound 174] |  |  |  |  | 5 | 2 | 5
CC[C@H](C)[C@H](NC(=O)[C@H](C)NC(=O)[C@H](C)NC(=O)[C@]1(C)CCCC=CCCCCCC[C@@](C)(NC(=O)[C@H](Cc2ccccc2)NC(=O)[C@@H](NC(=O)[C@H](CC(C)C)NC(C)=O)[C@@H](C)O)C(=O)N[C@@H](C)C(=O)N[C@@H](Cc2ccc(C(=O)O)cc2)C(=O)N[C@@H](Cc2c[nH]c3ccccc23)C(=O)N[C@@H](C)C(=O)N[C@@H](CCC(N)=O)C(=O)N[C@@H](CC(C)C)C(=O)N1)C(=O)N[C@H](C)C(N)=O (single isomer, unassigned) [compound 182] | 100 to 1000 | 10 to 100 | < 10 | < 10 | 0 | 3 | 6
CC(=O)N[C@@H](CC(C)C)C(=O)N[C@H](C(=O)N[C@@H](Cc1ccccc1)C(=O)N[C@]1(C)CCCCCCC=CCCC[C@@](C)(C(=O)N[C@@H](C)C(=O)N[C@@H](C)C(=O)NC(C)(C)C(=O)N[C@@H](C)C(N)=O)NC(=O)[C@H](CC(C)C)NC(=O)[C@H](CCC(N)=O)NC(=O)[C@H](C)NC(=O)[C@H](Cc2c[nH]c3ccccc23)NC(=O)[C@H](Cc2ccc(O)cc2)NC(=O)[C@H](C)NC1=O)[C@@H](C)O (single isomer, unassigned) [compound 232] | 100 to 1000 | 10 to 100 | < 10 | < 10 | 6 | 5 | 5
CC[C@H](C)[C@H](NC(=O)[C@H](C)NC(=O)[C@H](C)NC(=O)[C@]1(C)CCCC=CCCCCCC[C@@](C)(NC(=O)[C@H](Cc2ccccc2)NC(=O)[C@@H](NC(=O)[C@H](CC(C)C)NC(C)=O)[C@@H](C)O)C(=O)N[C@@H](CCC(=O)O)C(=O)N[C@@H](Cc2ccc(C(=O)O)cc2)C(=O)N[C@@H](Cc2c[nH]c3cc(Cl)ccc23)C(=O)N[C@@H](C)C(=O)N[C@@H](CCC(N)=O)C(=O)N[C@@H](CC2CCC2)C(=O)N1)C(=O)N[C@H](C)C(N)=O (single isomer, unassigned) [compound 335] |  |  |  |  | 0 | 0 | 1
CC(=O)N[C@@H](CCC(=O)O)C(=O)N[C@H](C(=O)N[C@@H](Cc1ccccc1)C(=O)N[C@]1(C)CCCCCCC=CCCC[C@@](C)(C(=O)N[C@@H](C)C(=O)N[C@@H](C)C(=O)N[C@@H](C)C(=O)N[C@@H](C)C(=O)N[C@@H](C)C(=O)N[C@H](C)C(N)=O)NC(=O)[C@H](CC(C)C)NC(=O)[C@H](CCC(N)=O)NC(=O)[C@H](C)NC(=O)[C@H](Cc2c[nH]c3ccccc23)NC(=O)[C@H](Cc2ccc(O)cc2)NC(=O)[C@H](CCC(=O)O)NC1=O)[C@@H](C)O (single isomer, unassigned) [compound 340] |  |  |  |  | 0 | 0 | 0
CC(=O)N[C@@H](CC(C)C)C(=O)N[C@H](C(=O)N[C@@H](Cc1ccccc1)C(=O)N[C@]1(C)CCCCCCC=CCCC[C@@](C)(C(=O)N[C@@H](C)C(=O)N[C@@H](Cc2c[nH]cn2)C(=O)N[C@@H](Cc2ccccc2)C(=O)N[C@@H](C)C(N)=O)NC(=O)[C@H](CC(C)C)NC(=O)[C@H](CCC(N)=O)NC(=O)[C@H](C(C)C)NC(=O)[C@H](Cc2c[nH]c3ccccc23)NC(=O)[C@H](Cc2c[nH]cn2)NC(=O)[C@H](C)NC1=O)[C@@H](C)O [compound 190] (Ac-LTF[R8]AHWVQL[S5]AHFA-NH2; staple 4-11) |  |  |  |  | −1 | 0 | 1
CCCC[C@H](NC(=O)[C@H](C)NC(=O)[C@H](C)NC(=O)[C@]1(C)CCCC=CCCCCCC[C@@](C)(NC(=O)[C@H](Cc2ccccc2)NC(=O)[C@@H](NC(=O)[C@H](CC(C)C)NC(C)=O)[C@@H](C)O)C(=O)N[C@@H](C)C(=O)N[C@@H](Cc2ccc(O)cc2)C(=O)N[C@@H](Cc2c[nH]c3ccccc23)C(=O)N[C@@H](Cc2cc(=O)oc3cc(OC)c(OC)cc23)C(=O)N[C@@H](CCC(N)=O)C(=O)N[C@@H](CC(C)C)C(=O)N1)C(=O)N[C@@H](C)C(N)=O [compound 415] |  |  |  |  | 4 | 2 | 2
